Source: the supplement of paper PMC10307832

Experiments:
Experiment in all cases: relative viability (nuclei count vs DMSO), 5 days (fraction); higher = more cells survive
[1] = compound: NS(=O)(=O)OC[C@@H]1C[C@@H](n2ccc3c(N[C@H]4CCc5ccccc54)ncnc32)C[C@@H]1O [MLN4924] + CC(=O)Nc1cccc(-n2c(=O)n(C3CC3)c(=O)c3c(Nc4ccc(I)cc4F)n(C)c(=O)c(C)c32)c1 [Trametinib] (partner 0.02 µM)
Procedure, shortened: (§1)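 Relative viability divides the nuclei count in treated wells by that in vehicle wells. Lung cancer cell lines were seeded in 1536-well plates, dosed by pin tool the next day, and fixed and stained after 5 days in one step with final 0.05% Triton X-100, 1% formaldehyde and 1 ug/ml Hoechst. Dosing was a single drug or a fixed anchor-drug dose plus five library-drug doses (not always all listed) in √10 steps, and values are medians of duplicate plates imaged at 4×.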

[2] = compound: CC[C@H](C)N1C=C(C2=C(C=C(C=C21)C3=CN=C(C=C3)N4CCNCC4)C(=O)NCC5=C(C=C(NC5=O)C)C)C [GSK126] + CC1(C)CCC(c2ccc(Cl)cc2)=C(CN2CCN(c3ccc(C(=O)NS(=O)(=O)c4ccc(N[C@H](CCN5CCOCC5)CSc5ccccc5)c(S(=O)(=O)C(F)(F)F)c4)cc3)CC2)C1 [Navitoclax] (partner 0.5 µM)
Procedure, shortened: as §1

[3] = compound: C1CC(C1)(C(=O)O)C(=O)O.[NH2-].[NH2-].[Pt+2] [Carboplatin] + COc1cc2c(Oc3ccc(NC(=O)C4(C(=O)Nc5ccc(F)cc5)CC4)cc3F)ccnc2cc1OCCCN1CCOCC1 [Foretinib] (partner 0.25 µM)
Procedure, shortened: as §1

[4] = compound: CC[C@H](C)N1C=C(C2=C(C=C(C=C21)C3=CN=C(C=C3)N4CCNCC4)C(=O)NCC5=C(C=C(NC5=O)C)C)C [GSK126] + Cc1nc(NC(=O)N2CCC[C@H]2C(N)=O)sc1-c1ccnc(C(C)(C)C(F)(F)F)c1 [Alpelisib] (partner 2 µM)
Procedure, shortened: as §1

Row | Cell Line | relative viability ([1]; first compound 0.04 µM) | relative viability ([1]; first compound 0.1265 µM) | relative viability ([1]; first compound 0.4 µM) | relative viability ([1]; first compound 1.265 µM) | relative viability ([1]; first compound 4 µM) | relative viability ([2]; first compound 0.08 µM) | relative viability ([2]; first compound 0.253 µM) | relative viability ([2]; first compound 0.8 µM) | relative viability ([2]; first compound 2.53 µM) | relative viability ([2]; first compound 8 µM) | relative viability ([3]; first compound 0.08 µM) | relative viability ([3]; first compound 0.253 µM) | relative viability ([3]; first compound 0.8 µM) | relative viability ([3]; first compound 2.53 µM) | relative viability ([3]; first compound 8 µM) | relative viability ([4]; first compound 0.08 µM) | relative viability ([4]; first compound 0.253 µM) | relative viability ([4]; first compound 0.8 µM) | relative viability ([4]; first compound 2.53 µM) | relative viability ([4]; first compound 8 µM)
1 | NCI-H2228 | 0.537 | 0.496 | 0.255 | 0.168 | 0.125 | 0.55 | 1.01 | 1.1 | 0.863 | 0.837 | 0.907 | 0.831 | 0.626 | 0.845 | 0.532 | 0.848 | 0.52 | 0.691 | 0.99 | 0.783
2 | NCI-H2347 | 0.312 | 0.32 | 0.284 | 0.265 | 0.293 | 1.03 | 0.679 | 0.688 | 0.799 | 0.772 | 1.51 | 1.01 | 1.14 | 1.23 | 0.788 | 1.22 | 0.918 | 1.09 | 0.99 | 0.907
3 | NCI-H2405 | 0.882 | 0.893 | 0.621 | 0.292 | 0.254 | 0.76 | 0.708 | 0.805 | 0.895 | 0.552 | 1.15 | 1.09 | 0.983 | 0.958 | 0.952 | 0.774 | 0.664 | 0.827 | 0.761 | 0.667
4 | NCI-H3122 | 0.25 | 0.162 | 0.204 | 0.136 | 0.098 | 1.04 | 1.06 | 1.05 | 1 | 1.02 | 0.944 | 0.986 | 0.926 | 0.91 | 0.923 | 0.827 | 0.854 | 0.767 | 0.768 | 0.829
5 | PC-3 [JPC-3] | 0.625 | 0.727 | 0.495 | 0.538 | 0.374 | 0.877 | 0.862 | 0.874 | 0.76 | 0.753 | 1.08 | 1.03 | 1 | 1.05 | 0.933 | 1.04 | 1.13 | 1.05 | 1.02 | 1.07
6 | PC-14 | 1.01 | 0.624 | 0.259 | 0.0838 | 0.0619 | 1.04 | 0.998 | 1.02 | 0.95 | 0.804 | 0.945 | 0.885 | 0.942 | 0.905 | 0.694 | 0.946 | 0.993 | 0.899 | 0.826 | 0.852
7 | RERF-LC-KJ | 0.8 | 0.66 | 0.365 | 0.215 | 0.203 | 1.29 | 1.02 | 1.18 | 0.956 | 0.828 | 0.933 | 0.874 | 0.956 | 0.772 | 0.713 | 0.881 | 0.803 | 0.697 | 0.845 | 0.734
8 | SK-LU-1 | 0.556 | 0.652 | 0.347 | 0.269 | 0.234 | 0.857 | 0.819 | 0.911 | 0.915 | 0.855 | 0.867 | 0.878 | 0.815 | 0.749 | 0.543 | 1.01 | 1.11 | 1.2 | 1.18 | 1.03
9 | SK-MES-1 | 0.631 | 0.676 | 0.727 | 0.295 | 0.255 | 1.4 | 1.27 | 1.1 | 1.33 | 1.16 | 1.24 | 0.95 | 0.906 | 1.06 | 0.818 | 0.901 | 0.878 | 0.92 | 0.868 | 0.996
10 | SW 1573 | 0.586 | 0.441 | 0.14 | 0.0868 | 0.0758 | 0.894 | 0.955 | 1.2 | 1.06 | 1.07 | 0.883 | 1.03 | 1.01 | 0.901 | 0.799 | 0.725 | 0.811 | 0.819 | 0.773 | 0.786
